The target of experiment [1] is T1, BRD4(1), first bromodomain of BRD4 (Homo sapiens, UniProt O60885).
T1 construct: BRD4(1) for the first bromodomain of BRD4; purchased DiscoveRx Corporation (assay service); host or cells: T7 phage grown in an E. coli host derived from the BL21 strain
Nature of the experiment: Bromoscan assay BRD4(1) (DiscoveRx). The class given is binding. The conditions noted are these: for Kd: first bromodomain of BRD4, read-out: BromoScan BRD4_1 Kd/nM; for BromoScan BRD4_2/1: ratio of Kd BRD4_2 to BRD4_1, selectivity for BRD4_1 over BRD4_2. How it is done: (§1) Bromoscan assays were run by DiscoveRx Corporation. The relevant assay names are BRD4(1) for the first bromodomain of BRD4 and BRD4(2) for the second bromodomain of BRD4. Further Bromoscan assays covering other bromodomains could be employed to establish the selectivity profile of a compound of interest. To run the Bromoscan assay, a T7 phage strain displaying the relevant bromodomain was grown in parallel in 24-well blocks in an E. coli host derived from the BL21 strain. E. coli were grown to log-phase and infected with T7 phage from a frozen stock (multiplicity of infection=0.4) and incubated with shaking at 32° C. until lysis (90-150 minutes). The lysates were centrifuged (5,000×g) and filtered (0.2 μm) to remove cell debris. Streptavidin-coated magnetic beads were treated with biotinylated small molecule or acetylated peptide ligands for 30 minutes at room temperature to generate affinity resins for bromodomain assays. The liganded beads were blocked with excess biotin and washed with blocking buffer (SeaBlock (Pierce), 1% BSA (bovine serum albumin), 0.05% Tween 20, 1 mM DTT (dithiothreitol)) to remove unbound ligand and to reduce non-specific phage binding. Binding reactions were assembled by combining bromodomains, liganded affinity beads, and test compounds in 1× binding buffer (17% SeaBlock, 0.33×PBS, 0.04% Tween 20, 0.02% BSA, 0.004% Sodium azide, 7.4 mM DTT). Test compounds were prepared as 1000× stocks in 100% DMSO and subsequently diluted 1:10 in monoethylene glycol (MEG) to create stocks at 100× the screening concentration (resulting stock solution is 10% DMSO/90% MEG). The compounds were then diluted directly into the assays such that the final concentration of DMSO and MEG were 0.1% and 0.9%, respectively. All reactions were performed in polystyrene 96-well plates in a final volume of 0.135 ml. The assay plates were incubated at room temperature with shaking for 1 hour and the affinity beads were washed with wash buffer (1×PBS, 0.05% Tween 20). The beads were then re-suspended in elution buffer (lx PBS, 0.05% Tween 20, 2 μM nonbiotinylated affinity ligand) and incubated at room temperature with shaking for 30 minutes. The bromodomain concentration in the eluates was measured by qPCR (quantitative real-time polymerase chain reaction).

In experiment [2] the target is T2, BRD4(2), second bromodomain of BRD4 (Homo sapiens, UniProt O60885).
T2 construct: BRD4(2) for the second bromodomain of BRD4; purchased DiscoveRx Corporation (assay service); host or cells: T7 phage grown in an E. coli host derived from the BL21 strain
Nature of the experiment: Bromoscan assay BRD4(2) (DiscoveRx). The conditions noted are these: read-out: BromoScan BRD4_2 Kd/nM. The class given is binding. How it is done: as §1

The target of a further experiment is BRD4 protein (Homo sapiens, UniProt O60885). As to the kind of experiment: FRET assay, half maximal inhibitory concentration (IC50). Format: binding. The conditions noted are these: BRD4 protein 50 nM, Biotin-H4KAc4 peptide 12.5 nM. The method, boiled down: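 Acetylated histone H4 peptide binding (biotin-H4KAc4, 12.5 nM final) to BRD4 (50 nM final) detected by TR-FRET between streptavidin cryptate (2.4 nM) and GST-XL665 antibody (10 nM) in KF/BSA. Buffer: HEPES pH 7.5, NaCl, CHAPS. Compound dilutions from 50 μM in 12.5% DMSO were preincubated with protein for 30 min. Variable-slope IC50.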

The test system of a further experiment is IL-12p40. As to the kind of experiment: Cytokine release inhibition assay: LPS-induced cytokine release from human PBMCs. Particulars: PBMC, LPS 1 ng/mL, 18 h, read-out: LPS IC50 IL12p40 μM. The class given is cell-based. How it is done: Cytokine release inhibition assay: LPS-induced cytokine release from human peripheral blood mononuclear cells (PBMCs)
200,000 PBMCs were seeded per well of a 96-well plate in 160 μL of medium. Afterwards, 20 μL of ten times concentrated working dilutions of compound or DMSO control were added per well. Cells were pre-incubated with compounds for 1 h at 37° C., 5% CO2, 95% humidity and 20 μL of ten times concentrated LPS was added to cells (Sigma L4391, final concentration 1 ng/mL). Following 18 h incubation at 37° C., 5% CO2, 95% humidity, plates were centrifuged for 10 minutes at 300×g. 150 μL of supernatants were collected for IL-12p40 determination. The concentration of IL-12p40 in supernatants was determined by sandwich ELISA (enzyme-linked immunosorbent assay) using capture and detection antibodies according to the manufacturer's instructions (R&D Systems DY1240). Data can be analyzed using GraphPad Prism, and IC50 data can be obtained using non-linear regression curve fit using log(compound) vs response (variable slope).

For a further experiment, the system named is MV-4-11 tumor cells. Nature of the experiment: Cell viability assay (CellTiter-Glo). The class given is cell-based. The conditions noted are these: Homo sapiens, MV4-11; MV-4-11 cells, 72 hours with compound. How it is done:
Grow MV-4-11 tumor cells (ATCC CRL-9591) in suspension at 37° C. in a humidified atmosphere (5% CO2, 95% air, IMDM (Iscove's Modified Dulbecco's Medium) medium supplemented with 10% FBS (fetal bovine serum)) Seed cells at a density of 10.000 cells per well of a flat-bottomed 96 well plate in 50 μL of medium. After 24 hours, add 50 μL of test compound or DMSO control from a pre-generated compound dilution series in medium. After an additional 72 hours, add 100 μL of pre-mixed CellTiter-Glo reagent (Promega G7570) to each well, shake for two minutes to allow cell lysis followed by 10 minutes of incubation at room temperature without shaking. Read luminescence on an Envision reader (Perkin Elmer). The inhibition of cell viability (IC) can be expressed as follows:
[formula] IC data can be analyzed using GraphPad Prism, and IC50 data can be obtained using non-linear regression curve fit using log(compound) vs response (variable slope). The effect of compound on the viability of other cell lines can be assayed under similar conditions, taking into account the growth requirement of the individual cell line.
For orientation: Cellular ATP, detected with luciferase, serves as a proxy for viable cell number.

Setting [3] is: A Further List of Classification.

Turning to `Cc1cc(O)nc2ccc(NC(=O)c3cc(C(C)O)ncc3N3CCCC3)cc12` (stereo not shown) [Compound-43], the results for the Kd in experiment [1] and in experiment [2] were 2.4 nM and 79 nM, respectively. Also, in experiment [1], the “BromoScan BRD4_2/1” value was 32.9. The values for the IC50 on BRD4 protein (List of Classification) and in the experiment on IL-12p40 were less than 200 nM and 400 nM, respectively.

`Cc1cc(O)nc2ccc(NC(=O)c3cc(S(=O)(=O)N4CCCCC4)ccc3N3CCOCC3)cc12` [Compound-67, N-(2-hydroxy-4-methyl-6-quinolyl)-2-morpholino-5-(1-piperidylsulfonyl)benzamide]: the IC50 in the experiment on MV-4-11 tumor cells was 1200 nM; against BRD4 protein (List of Classification), less than 200 nM. Besides, the figures for the Kd in experiment [1] and in experiment [2] were 6.2 nM and 1180 nM, respectively. Also, in experiment [1], the “BromoScan BRD4_2/1” value came to 190.9.

Turning to `Cc1cc2nc(O)cc(C)c2cc1NC(=O)c1cc(S(=O)(=O)N(C)C)ccc1N1CCOCC1` [Compound-99, 5-(dimethylsulfamoyl)-N-(2-hydroxy-4,7-dimethyl-6-quinolyl)-2-morpholino-benzamide], the figures for the Kd in experiment [1] and in experiment [2] were 12 nM and 5600 nM, respectively. The “BromoScan BRD4_2/1” value in experiment [1] amounted to 466.7. The 50% inhibitory concentration (IC50) was less than 200 nM against BRD4 protein (List of Classification) and 400 nM in the experiment on IL-12p40.

Regarding `Cc1cc(O)nc2c(C)cc(NC(=O)c3cc(S(=O)(=O)N(C)C)ccc3N3CCCC3)cc12` [Compound-107, 5-(dimethylsulfamoyl)-N-(2-hydroxy-4,8-dimethyl-6-quinolyl)-2-pyrrolidin-1-yl-benzamide], the IC50 in the experiment with MV-4-11 tumor cells is 700 nM; at BRD4 protein (List of Classification) it was less than 200 nM. The Kd in experiment [1] was found to be 3.6 nM; in experiment [2], 28 nM. The “BromoScan BRD4_2/1” value in experiment [1] came to 7.8.

Consider `Cc1cc(O)nc2ccc(NC(=O)c3cc(C4(N5CCOCC5)CC4)ccc3N3CCCC3)cc12` [Compound-113, N-(4-methyl-2-oxo-1,2-dihydroquinolin-6-yl)-5-(1-morpholinocyclopropyl)-2-(pyrrolidin-1-yl)benzamide], for which the IC50 was 600 nM in the experiment with MV-4-11 tumor cells and less than 200 nM at BRD4 protein (List of Classification). Besides, the Kd in experiment [1] is 16 nM; in experiment [2], 190 nM. Also, the “BromoScan BRD4_2/1” value in experiment [1] amounted to 11.9.

Consider `Cc1cc(O)nc2ccc(NC(=O)c3cccnc3N3CCOCC3)cc12` [Compound-128, N-(2-hydroxy-4-methyl-6-quinolyl)-2-morpholino-pyridine-3-carboxamide], for which the values for the Kd in experiment [1] and in experiment [2] were 15 nM and 2500 nM, respectively. Moreover, the “BromoScan BRD4_2/1” value in experiment [1] was 166.7. Further, the figures for the IC50 against BRD4 protein (List of Classification) and in the experiment on IL-12p40 were less than 200 nM and 300 nM, respectively.

For the compound `Cc1cc(O)nc2ccc(NC(=O)c3cc(CN4CCOCC4)cnc3N3CCOC(CO)C3)cc12` (stereo not shown) [S114, 2-[2-(hydroxymethyl)morpholin-4-yl]-N-(2-hydroxy-4-methyl-6-quinolyl)-5-(morpholinomethyl)pyridine-3-carboxamide], at BRD4 protein (setting [3]), the IC50 was more than 10000 nM.

For the compound `Cc1cc(O)nc2ccc(NC(=O)c3cc(CN4CCOCC4)cnc3N3CC(CO)OCC3C)cc12` (stereo not shown) [S115, 2-[2-(hydroxymethyl)-5-methyl-morpholin-4-yl]-N-(2-hydroxy-4-methyl-6-quinolyl)-5-(morpholinomethyl)pyridine-3-carboxamide], at BRD4 protein (setting [3]), the concentration for half-maximal inhibition (IC50) was more than 10000 nM.

With `Cc1cc(O)nc2ccc(NC(=O)c3cc(CN4CCOCC4)cnc3N3CCOC(CN(C)C)C3)cc12` (stereo not shown) [S117, 2-[2-(dimethylaminomethyl)morpholin-4-yl]-N-(2-hydroxy-4-methyl-6-quinolyl)-5-(morpholinomethyl)pyridine-3-carboxamide], the IC50 on BRD4 protein (setting [3]) was more than 10000 nM.

In turn, `Cc1cc(O)nc2ccc(NC(=O)c3cc(CN4CCOCC4)cnc3N3CCC(CO)C3)cc12` (stereo not shown) [S118, 2-[3-(hydroxymethyl)pyrrolidin-1-yl]-N-(2-hydroxy-4-methyl-6-quinolyl)-5-(morpholinomethyl)pyridine-3-carboxamide] gave an IC50 on BRD4 protein (setting [3]) of more than 10000 nM.

For the compound `Cc1cc(O)nc2ccc(NC(=O)c3cc(CN4CCN(C)CC4)ccc3N3CCCC3)cc12` [compound 1, N-(2-hydroxy-4-methylquinolin-6-yl)-5-((4-methylpiperazin-1-yl)methyl)-2-(pyrrolidin-1-yl)benzamide], the half-inhibitory concentration (IC50) with MV-4-11 tumor cells was 600 nM; against BRD4 protein (List of Classification) it was less than 200 nM; in the experiment on IL-12p40, 300 nM. In addition, the Kd in experiment [1] worked out at 13 nM; in experiment [2], 330 nM. The “BromoScan BRD4_2/1” value in experiment [1] is given as 25.4.

A word on the IC50: it is the concentration needed to halve the response being measured.

The values are drawn from patent US10752640B2, “Compounds active towards bromodomains” (NUEVOLUTION A/S, priority 2014, dated 2020).
